In US8697385B1, “Protein controlling synthesis of collagen and associated methods” (Florida State University Research Foundation, Inc., priority 2009, dated 2014):

Legend:
[1] = tested on: lung fibroblasts and scleroderma fibroblasts; assay: Intracellular collagen degradation with proteosome inhibitor epoxomycin, Western blot; assay type: cell-based, human
Source text: FIG. 3 Disruption of nonmuscle myosin by ML-7 results in secretion of homotrimeric type I collagen. (a) ML-7 disrupts nonmuscle myosin filaments. Immunostaining of nonmuscle myosin IIB in control lung fibroblasts (CON) and in lung fibroblasts treated with ML-7 (ML-7). […] Western blot analysis of control cells (lane 1) and cells treated with ML-7 (lane 2) using anti-myosin IIB antibody (MYO IIB). Fibronectin (FIB), loading control. (c) Effect of ML-7 on collagen secretion from lung fibroblasts. Western blot analysis of cellular proteins from control cells (lane 2) and ML-7-treated cells (lane 1), and of medium proteins from control cells (lane 4) and ML-7-treated cells (lane 3). COL1A1, collagen α1(I) polypeptide; COL1A2, collagen α2(I) polypeptide; FIB, fibronectin as loading control. […] The medium samples from (c) were analyzed under reducing conditions (lanes 1 and 2) and nonreducing conditions […] with antibody specific for collagen α1(I) polypeptide. […] Intracellular collagen was analyzed by Western blot analysis using antibodies against collagen α1(I) polypeptide (COL1A1) and α2(I) polypeptide (COL1A2). […]
(§1) Protein concentration was estimated by the Bradford assay, with bovine serum albumin as standard.^51 Western blot analyses of cellular proteins were performed using 50 μg of protein. […] The medium was collected, and an aliquot was analyzed directly by Western blot analysis. […]

[2] = tested on: nonmuscle myosin filaments; assay: Immunostaining of nonmuscle myosin IIB filaments in scleroderma fibroblasts; assay type: cell-based, human; conditions: ML-7, compared with effect in lung fibroblasts
Description: (§2) ML-7, blebbistatin, cytochalasin B, puromycin, and cycloheximide were purchased from Sigma. ML-7 was used at 40 μM, blebbistatin was used at 100 μM, and cytochalasin B was used at 20 μM. Cells were incubated with the drugs for 16 h before analysis. Puromycin (200 μg/ml) and cycloheximide (100 μg/ml) were added to the cells for 2 h. Human lung fibroblasts have been described previously.16 Scleroderma fibroblasts were purchased from the European Collection of Cell Cultures (cell line BM0070) and derived from the skin of a scleroderma patient. MEFs were derived from knock-in mice in which the 5′SL of the collagen α1(I) gene has been mutated (Parsons et al., submitted). Several independent cell isolates were used throughout the study. All cells were cultured in Dulbecco's modified Eagle's medium supplemented with 10% fetal bovine serum for up to 10 passages. […] [^32P]dCTP was included in the PCR step to label the products, which were resolved on sequencing gels, as described previously.^8,31,49,50 When RNA from polysomal fractions was analyzed, an equal aliquot of each fraction was used. […]
as §1

[3] = tested on: nonmuscle myosin filaments; assay: Immunostaining of nonmuscle myosin IIB filaments in lung fibroblasts; assay type: cell-based; conditions: human lung fibroblasts; ML-7 40 μM 16 h; untreated cells show prominent filaments
Description: as §2, §1

O=S(=O)(c1cccc2c(I)cccc12)N1CCCNCC1 [ML-7]
intracellular level of both collagen polypeptides ([1]; ML-7 in combination with epoxomycin vs epoxomycin alone, lung and scleroderma fibroblasts): significantly increased | additional (degradation) product of approximately 120 kDa ([1]; epoxomycin and ML-7, not seen with epoxomycin alone): prominently seen | myosin IIB immunostaining (filaments) [2]: same effect | myosin IIB immunostaining (filaments) [3]: myosin staining is confined around the nucleus
